# Measured values reported in patent US4447434A, “Substituted dibenzodiazepinones” (Dr. Karl Thomae GmbH, priority 1982, dated 1984).
# Where two headings read alike, the source gives them in different places.
# Tests used:
# [1] = target: muscarinic receptors (cerebral cortex); experiment: Binding to muscarinic receptors, cerebral cortex (displacement of 3H-N-methylscopolamine); set-up: species or system rat (male Sprague-Dawley); details: cerebral cortex homogenate 1:3000; 0.3 n molar 3H-NMS; 30° C, 45 min, pH 7.4; read-out: Receptor binding tests IC50, Cortex
# Procedure: (§1) 2. Studies of binding to muscarinic receptors: Determination of the IC50 value
# (§2) The organ donors were male Sprague-Dawley rats with a body weight of from 180 to 220 g. After the heart, stomach and cerebral cortex had been removed, the remainder of the operation was carried out in ice-cold Hepes-HCl buffer (pH 7.4; 100 m molar NaCl, 10 m molar MgCl2). The smooth muscle of the fundus of the stomach was separated from the mucous membrane of the stomach and subjected to preliminary homogenization. The whole heart was cut up with scissors. All the organs were then homogenized in a Potter apparatus.
# (§3) For the binding test, the homogenized organs were diluted as follows:
# (§4) The homogenized organ preparations were incubated at a specific concentration of the radiolabelled compound and with a series of concentrations of the nonradioactive test substances in an Eppendorf centrifuge tube at 30° C. The duration of incubation was 45 minutes. 0.3 n molar ^3 H-N-methylscopolamine (^3 H-NMS) was used as the radiolabelled compound. After incubation had been brought to an end by centrifuging at 14000 g, the radioactivity in the pellet was determined. It represents the sum of the specific and nonspecific binding of ^3 H-NMS. The proportion of nonspecific binding was defined as the radioactivity which was bound in the presence of 1μ molar quinuclidinylbenzylate. Four measurements were taken in each case. The IC50 values of the non-labelled test substances were determined graphically. They represent the concentration of test substance at which the specific binding of ^3 H-NMS to the muscarinic receptors in the various organs was inhibited by 50%.
# [2] = target: T1, muscarinic receptors (heart) (Rattus norvegicus, UniProt P10980); experiment: Binding to muscarinic receptors, whole heart (displacement of 3H-N-methylscopolamine); set-up: species or system rat (male Sprague-Dawley)
# T1 construct: The whole heart was cut up with scissors; from tissue; host or cells: whole heart of male Sprague-Dawley rats, homogenate
# T1 sequence (P10980 1-466): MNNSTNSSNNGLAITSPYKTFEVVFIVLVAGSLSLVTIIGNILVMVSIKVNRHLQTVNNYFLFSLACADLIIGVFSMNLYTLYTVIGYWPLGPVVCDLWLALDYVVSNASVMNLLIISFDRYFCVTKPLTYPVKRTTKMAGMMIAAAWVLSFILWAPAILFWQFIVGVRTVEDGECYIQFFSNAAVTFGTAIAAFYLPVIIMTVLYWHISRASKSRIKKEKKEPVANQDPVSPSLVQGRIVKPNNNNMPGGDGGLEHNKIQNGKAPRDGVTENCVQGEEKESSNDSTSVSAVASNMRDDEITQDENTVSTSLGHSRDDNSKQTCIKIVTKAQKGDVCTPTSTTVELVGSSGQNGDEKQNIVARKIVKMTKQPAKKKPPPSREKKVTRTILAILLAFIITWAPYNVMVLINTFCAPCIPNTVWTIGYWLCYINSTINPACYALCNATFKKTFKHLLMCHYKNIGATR
# Procedure: as §1, §2, §3, §4
# [3] = Mydriasis (effect on the pupil size); details: rat, in vivo, iv; pupil size observed for 10 minutes; double blind
# Procedure: The effect of the test substances on the pupil size in rats was investigated as follows:
# The substances were administered intravenously to groups of 10 animals in at least three uniformly graduated doses. […] The percentage of test animals in which mydriasis occurred was determined. The ED50 values were again determined using the method of LITCHFIELD and WILCOXON (see above).
# [4] = system: oxotremorine-induced secretion of saliva; experiment: Oxotremorine test: inhibition of salivation; assay type: in vivo, rat (female albino, Crl:COBS-CD (SD) BR); details: Rattus norvegicus, iv, 0.25 h, read-out: Oxotremorine Test, Inhibition of salivation ED50
# Procedure: (§5) Oxotremorine, a specific agonist for muscarinic receptors, produces lesions in the mucous membrane of the stomach in rats and increases their secretion of saliva. This test method was chosen so that any selective activity of an antimuscarinic substance on the stomach could be identified.
# (§6) 10 female albino rats (of the Crl:COBS-CD (SD) BR strain) with a body weight of from 120 to 150 g were used in each treatment group and were kept without food for 24 hours before the start of the test but given free access to drinking water.
# (§7) In order to determine, in preliminary tests, the muscarinic effect of oxotremorine on each of the symptoms studied, a dosage/activity curve was drawn up with at least three dosages for each symptom.
# (§8) When testing the antimuscarinic substances, the dosage of oxotremorine which triggered the symptom in question in 90 to 100% of the animals in the preliminary tests was used.
# Secretion of saliva: 0.083 mg/kg i.v.
# (§9) Each antimuscarinic substance was administered intravenously in uniformly graduated doses 15 minutes before the oxotremorine was administered. Control groups were given corresponding quantities of the solvent and suspending agent instead of the test substance.
# (§10) Immediately after the oxotremorine was administered, the animals were placed in a glass case for 15 minutes and observed.
# (§11) The ED50 values were determined using the method described by LITCHFIELD and WILCOXON (J. Pharmacol. Exp. Ther. 96, 99, 1949).
# [5] = target: muscarinic receptors (smooth muscle fundus of stomach); experiment: Binding to muscarinic receptors, smooth muscle of the fundus of the stomach (displacement of 3H-N-methylscopolamine); set-up: species or system rat (male Sprague-Dawley); details: smooth muscle of fundus homogenate 1:100; 0.3 n molar 3H-NMS; 30° C, 45 min, pH 7.4; read-out: Receptor binding tests IC50, Smooth muscle fundus of stomach
# Procedure: as §1, §2, §3
# Smooth muscle of the fundus of the stomach: 1:100
# as §4
# [6] = system: oxotremorine-induced lesions in the mucous membrane of the stomach; experiment: Oxotremorine test: antiulcerative effect (protection against lesions of the mucous membrane of the stomach); assay type: in vivo, rat (female albino, Crl:COBS-CD (SD) BR); details: Rattus norvegicus, iv; for ED50: read-out: Oxotremorine Test, Antiulcerative effect ED50; for ED70: read-out: Oxotremorine Test, Antiulcerative effect ED70
# Procedure: as §5, §6, §7, §8
# Lesions in mucous membrane of stomach: 0.62 mg/kg i.v.
# as §9, §10, §11
# The effects on lesions of the mucous membrane of the stomach were evaluated as follows:
# The lesions of the gastric mucous membrane were produced by intravenous injection of 0.62 mg/kg of oxotremorine 30 minutes after the oral administration of 1 mg/kg of neostigmine (a cholinesterase inhibitor). 60 minutes after the administration of the neostigmine, the animals were killed, the stomachs were removed and opened and examined for the presence of any lesions in the mucous membrane. The protective effect of the test substances was expressed as the percentage inhibition (percentage of animals without lesions). The ED50 and ED70 values were determined using the method of LITCHFIELD and WILCOXON (see above).
# [7] = i.v., 15 min before oxotremorine 0.083 mg/kg i.v., double blind
# [8] = 15 min before oxotremorine 0.62 mg/kg i.v., neostigmine 1 mg/kg oral
SMILES,IC50 [1],"IC50 ([2]; whole heart homogenate 1:250, 0.3 n molar 3H-NMS, 30° C, 45 min, pH 7.4, read-out: Receptor binding tests IC50, Heart)",ED50 at 10 min [3],ED50 [4],IC50 [5],ED50 [6],ED70 [6],IC50 [2],"ED50 [4, 7]","ED50 [6, 8]","ED70 [6, 8]"
"CN1[C@@H]2CC[C@H]1C[C@@H](CC(=O)N1c3ccccc3NC(=O)c3ccccc31)C2 [Substance C, endo-5,10-dihydro-5-[(8-methyl-8-azabicyclo[3,2,1]-oct-3-yl)acetyl]-11H-dibenzo[b,e][1,4]diazepin-11-one]",15 nM,55 nM,0.054 mg/kg,0.105 mg/kg,200 nM,0.0011 mg/kg,0.0038 mg/kg,–,–,–,–
"CN1CC=C(C(=O)N2c3ccccc3NC(=O)c3ccccc32)CC1 [Substance A, 5,10-dihydro-5-[(1-methyl-1,2,5,6-tetrahydro-4-pyridinyl)-carbonyl]-11H-dibenzo[b,e][1,4]diazepin-11-one]",30 nM,–,0.0366 mg/kg,–,100 nM,–,–,250 nM,0.08 mg/kg,0.0031 mg/kg,0.0065 mg/kg
"CN1CCC(CC(=O)N2c3ccccc3C(=O)Nc3cccc(Cl)c32)CC1 [Substance B, 6-chloro-5,10-dihydro-5-[(1-methyl-4-piperidinyl)acetyl]-11H-dibenzo[b,e][1,4]diazepin-11-one]",28 nM,–,0.138 mg/kg,–,170 nM,–,–,200 nM,0.23 mg/kg,0.0044 mg/kg,0.0084 mg/kg
